Assay results reported in patent US9315491B2 (DEVELOPMENT CENTER FOR BIOTECHNOLOGY, priority 2009, dated 2016).

Experiments:
[1] = system: p-S6K (mTORC1); assay: Immunoblotting, PI3K/Akt/mTOR signal transduction, p-S6K; format: cell-based; settings: Homo sapiens; PC-3 cell
Text: (§1) For immunoblotting experiments, A549 cells were inoculated to the wells of a 6-well culture plate and cultured overnight. […] Proteins were separated by SDS-PAGE electrophoresis and transferred to PVDF membrane. Protein expression was immunobloted by various primary antibodies and detected by Immobilon Western Chemiluminescent HRP Substrate (Millipore). Antibody against Akt, phosphor-Akt (Ser473), phosphor-Akt (Thr308), p70 S6 Kinase, phosphor-p70 S6 Kinase (Thr389), 4E-BP1, and phosphor-4E-BP1 (Thr37/46) were purchased form Cell Signaling Technology.

[2] = system: p-Akt S473 (mTORC2); assay: Immunoblotting, PI3K/Akt/mTOR signal transduction, p-Akt S473; format: cell-based; settings: Homo sapiens; PC-3 cell
Text: as §1

[3] = biological target: recombinant mTOR (Homo sapiens (Human), UniProt P42345); assay: mTOR kinase assay (33P incorporation into 4EBP1); format: biochemical; settings: compound at 10 μM, 10 μM ATP
Method in brief: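 Recombinant human mTOR (50 ng) phosphorylated His-tagged 4EBP1 (300 ng) with 10 μM ATP plus [γ-33P]-ATP in HEPES pH 7.5, MnCl2, EGTA and DTT for 30 min at 30° C. Labelled 4EBP1 was filter-captured and counted. IC50 was derived from eight-point duplicate dilution series.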

[4] = biological target: PI3K (p110α/p85α) (Homo sapiens (Human), UniProt P42336); assay: PI3K HTRF enzyme assay, p110α/p85α; format: biochemical; settings: read-out: % inhibition @ 500 nM p110α; compound at 500 nM, 10 μM ATP
Method in brief: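 Recombinant PI3K heterodimers with PIP2 substrate; reactions ran 30 min at room temperature with 10 μM ATP for p110α/p85α and 100 μM ATP for p110β/p85α. After stop, HTRF detection followed 17 h incubation in the dark at room temperature; HTRF ratio used as read-out.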

[5] = biological target: PI3K (p110β/p85α) (Homo sapiens (Human), UniProt P42338); assay: PI3K HTRF enzyme assay, p110β/p85α; format: biochemical; settings: read-out: % inhibition @ 500 nM p110β; compound at 500 nM, 100 μM ATP
Experimental: Recombinant PI3K (p110α/p85α) and PI3K (p110β/p85α) were from Millipore. […] Briefly, the compounds of interest dissolved in 100% DMSO were dispensed in all wells, following which the mixture of PIP2 and enzyme was added. PI3K (p110α/p85α) and PI3K (p110β/p85α) enzyme reactions were initiated in the presence of 10 μM and 100 μM ATP, respectively, and incubated for 30 min at room temperature. STOP solution prepared 2 hours prior to use was added to stop reactions, and mixed well. Detection solution prepared 2 hours prior to use was added, and incubated at room temperature for 17 hours in the dark. […] HTRF ration was calculated as follows: […]

[6] = system: A549 cells; assay: Antiproliferation assay (MTS), A549; format: cell-based; settings: Homo sapiens; A549, 72 hours of drug treatment
[7] = system: PC-3 cells; assay: Antiproliferation assay (MTS), PC-3; format: cell-based; settings: Homo sapiens, PC3, 72 hours of drug treatment
Experimental: (1) Antiproliferation Assay
PC-3, U-87 MG, HCC1954 and BT474 cell lines were purchased from the American Type Culture Collection (ATCC, USA). PC-3 was grown in F12K medium (GIBCO) containing 10% FBS. U-87 MG was grown in Eagle's minimum essential medium (MEM, Sigma) supplemented with nonessential amino acids, L-glutamine, sodium pyruvate, and 10% FBS. HCC1954 was grown in RPMI medium (GIBCO) containing 10% FBS. […] All cells were incubated in a humidified atmosphere containing 5% CO2 at 37° C.
Cell lines were inoculated to the wells of a 96-well culture plate with 1000-5000 cells per well. The compounds were prepared and used to treat cells with less than 1% DMSO. After 72 hours of drug treatment, the viability of each cell line was examined by CellTiter 96 Aqueous Non-Radioactive Cell Proliferation Assay (Promega). The living cells were detectable by conversion of MTS into aqueous, soluble formazan. MTS/PMS solution was freshly prepared and 20 μl of MTS/PMS solution was added to each well of the 96-well cultured plate. The assay plate was incubated for 3 hours and the absorbance at 490 nm was measured by EMax ELISA Reader (Molecular Devices). The IC50 values of compounds were determined after carrying out assays at eight serially diluted concentrations of each compound in triplicate, and are the mean of three separate determinations. The results were analyzed using linear regression software (GraphPad Prism 5; GraphPad Software Inc.).

[8] = system: p-Akt T308 (PI3K); assay: Immunoblotting, PI3K/Akt/mTOR signal transduction, p-Akt T308; format: cell-based; settings: Homo sapiens; PC-3 cell
Text: as §1

Chain of PI3K (p110β/p85α) (P42338 whole entry, species assumed): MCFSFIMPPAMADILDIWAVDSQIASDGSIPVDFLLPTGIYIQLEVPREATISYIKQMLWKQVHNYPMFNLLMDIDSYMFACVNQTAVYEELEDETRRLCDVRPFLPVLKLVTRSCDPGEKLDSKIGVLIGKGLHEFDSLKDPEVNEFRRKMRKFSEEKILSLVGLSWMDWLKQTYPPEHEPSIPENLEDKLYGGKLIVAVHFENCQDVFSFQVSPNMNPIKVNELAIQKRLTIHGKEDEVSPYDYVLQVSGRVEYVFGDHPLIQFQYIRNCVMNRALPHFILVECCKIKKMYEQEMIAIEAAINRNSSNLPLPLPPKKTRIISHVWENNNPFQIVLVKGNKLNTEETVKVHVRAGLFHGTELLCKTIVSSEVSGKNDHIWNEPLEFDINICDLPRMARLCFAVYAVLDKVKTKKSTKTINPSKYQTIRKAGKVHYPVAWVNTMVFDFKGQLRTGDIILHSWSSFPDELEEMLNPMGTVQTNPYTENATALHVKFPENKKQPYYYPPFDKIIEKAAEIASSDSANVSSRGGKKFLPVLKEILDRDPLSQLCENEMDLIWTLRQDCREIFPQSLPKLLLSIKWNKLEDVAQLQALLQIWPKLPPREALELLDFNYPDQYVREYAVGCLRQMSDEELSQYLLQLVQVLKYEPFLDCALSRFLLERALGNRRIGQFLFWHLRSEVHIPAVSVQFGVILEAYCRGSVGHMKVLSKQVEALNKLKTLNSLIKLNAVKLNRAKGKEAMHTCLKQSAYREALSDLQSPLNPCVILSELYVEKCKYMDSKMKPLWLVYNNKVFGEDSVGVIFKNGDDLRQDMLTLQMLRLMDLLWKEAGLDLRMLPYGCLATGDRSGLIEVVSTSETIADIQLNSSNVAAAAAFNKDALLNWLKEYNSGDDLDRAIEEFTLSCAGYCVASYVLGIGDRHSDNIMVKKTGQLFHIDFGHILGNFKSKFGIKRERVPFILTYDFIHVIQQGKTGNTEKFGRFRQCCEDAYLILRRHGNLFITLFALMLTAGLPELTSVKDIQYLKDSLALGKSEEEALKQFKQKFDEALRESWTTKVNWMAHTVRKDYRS
Chain of PI3K (p110β/p85α) (P27986 whole entry partner, species assumed): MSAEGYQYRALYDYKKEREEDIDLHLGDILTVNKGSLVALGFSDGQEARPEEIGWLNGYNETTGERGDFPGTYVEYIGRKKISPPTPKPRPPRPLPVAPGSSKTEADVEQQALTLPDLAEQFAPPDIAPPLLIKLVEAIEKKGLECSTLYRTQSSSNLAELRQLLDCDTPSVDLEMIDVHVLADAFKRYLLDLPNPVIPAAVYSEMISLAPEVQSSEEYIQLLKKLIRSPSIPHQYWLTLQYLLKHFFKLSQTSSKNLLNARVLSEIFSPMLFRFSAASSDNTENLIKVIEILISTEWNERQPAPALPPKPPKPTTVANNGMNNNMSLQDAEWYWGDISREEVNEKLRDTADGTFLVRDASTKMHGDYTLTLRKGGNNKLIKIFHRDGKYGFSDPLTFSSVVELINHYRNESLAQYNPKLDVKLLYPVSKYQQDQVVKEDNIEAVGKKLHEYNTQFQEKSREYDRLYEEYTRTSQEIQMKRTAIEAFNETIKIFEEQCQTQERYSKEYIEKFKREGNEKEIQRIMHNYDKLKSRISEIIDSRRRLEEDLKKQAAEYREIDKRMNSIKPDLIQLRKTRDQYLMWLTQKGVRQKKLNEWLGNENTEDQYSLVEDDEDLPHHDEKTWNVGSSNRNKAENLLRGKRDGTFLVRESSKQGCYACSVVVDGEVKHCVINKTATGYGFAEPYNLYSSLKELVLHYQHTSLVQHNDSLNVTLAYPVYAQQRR
Chain of PI3K (p110α/p85α) (P42336 whole entry, species assumed): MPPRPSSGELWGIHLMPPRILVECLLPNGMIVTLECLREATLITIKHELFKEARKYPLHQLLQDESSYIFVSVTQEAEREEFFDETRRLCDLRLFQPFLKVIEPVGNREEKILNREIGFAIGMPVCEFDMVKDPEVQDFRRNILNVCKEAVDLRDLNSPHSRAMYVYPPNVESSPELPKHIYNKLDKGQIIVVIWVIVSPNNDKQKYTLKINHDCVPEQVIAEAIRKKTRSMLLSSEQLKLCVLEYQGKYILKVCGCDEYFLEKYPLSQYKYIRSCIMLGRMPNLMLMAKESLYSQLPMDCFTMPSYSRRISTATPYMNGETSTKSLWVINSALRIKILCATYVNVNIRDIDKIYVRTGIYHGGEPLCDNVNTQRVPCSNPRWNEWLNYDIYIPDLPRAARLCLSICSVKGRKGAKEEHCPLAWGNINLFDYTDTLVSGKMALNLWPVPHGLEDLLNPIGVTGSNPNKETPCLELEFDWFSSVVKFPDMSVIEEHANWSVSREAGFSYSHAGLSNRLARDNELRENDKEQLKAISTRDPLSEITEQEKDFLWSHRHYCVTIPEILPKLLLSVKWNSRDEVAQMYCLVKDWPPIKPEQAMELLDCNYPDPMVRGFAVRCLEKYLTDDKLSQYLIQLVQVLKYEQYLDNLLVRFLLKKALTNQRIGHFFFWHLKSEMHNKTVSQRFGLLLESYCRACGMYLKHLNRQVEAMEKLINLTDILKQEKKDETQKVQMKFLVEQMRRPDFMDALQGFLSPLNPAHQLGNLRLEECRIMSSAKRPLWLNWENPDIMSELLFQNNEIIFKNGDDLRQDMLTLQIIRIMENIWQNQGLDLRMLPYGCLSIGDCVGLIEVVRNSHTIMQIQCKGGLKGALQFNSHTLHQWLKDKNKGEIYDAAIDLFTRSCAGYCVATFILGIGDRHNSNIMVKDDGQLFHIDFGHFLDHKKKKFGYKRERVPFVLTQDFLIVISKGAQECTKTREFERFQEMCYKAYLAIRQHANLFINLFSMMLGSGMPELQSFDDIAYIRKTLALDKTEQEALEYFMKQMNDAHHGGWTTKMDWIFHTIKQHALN
Chain of PI3K (p110α/p85α) (P27986 whole entry partner, species assumed): as the sequence (P27986 whole entry partner, species assumed) above
Chain of recombinant mTOR (P42345 1360-2549): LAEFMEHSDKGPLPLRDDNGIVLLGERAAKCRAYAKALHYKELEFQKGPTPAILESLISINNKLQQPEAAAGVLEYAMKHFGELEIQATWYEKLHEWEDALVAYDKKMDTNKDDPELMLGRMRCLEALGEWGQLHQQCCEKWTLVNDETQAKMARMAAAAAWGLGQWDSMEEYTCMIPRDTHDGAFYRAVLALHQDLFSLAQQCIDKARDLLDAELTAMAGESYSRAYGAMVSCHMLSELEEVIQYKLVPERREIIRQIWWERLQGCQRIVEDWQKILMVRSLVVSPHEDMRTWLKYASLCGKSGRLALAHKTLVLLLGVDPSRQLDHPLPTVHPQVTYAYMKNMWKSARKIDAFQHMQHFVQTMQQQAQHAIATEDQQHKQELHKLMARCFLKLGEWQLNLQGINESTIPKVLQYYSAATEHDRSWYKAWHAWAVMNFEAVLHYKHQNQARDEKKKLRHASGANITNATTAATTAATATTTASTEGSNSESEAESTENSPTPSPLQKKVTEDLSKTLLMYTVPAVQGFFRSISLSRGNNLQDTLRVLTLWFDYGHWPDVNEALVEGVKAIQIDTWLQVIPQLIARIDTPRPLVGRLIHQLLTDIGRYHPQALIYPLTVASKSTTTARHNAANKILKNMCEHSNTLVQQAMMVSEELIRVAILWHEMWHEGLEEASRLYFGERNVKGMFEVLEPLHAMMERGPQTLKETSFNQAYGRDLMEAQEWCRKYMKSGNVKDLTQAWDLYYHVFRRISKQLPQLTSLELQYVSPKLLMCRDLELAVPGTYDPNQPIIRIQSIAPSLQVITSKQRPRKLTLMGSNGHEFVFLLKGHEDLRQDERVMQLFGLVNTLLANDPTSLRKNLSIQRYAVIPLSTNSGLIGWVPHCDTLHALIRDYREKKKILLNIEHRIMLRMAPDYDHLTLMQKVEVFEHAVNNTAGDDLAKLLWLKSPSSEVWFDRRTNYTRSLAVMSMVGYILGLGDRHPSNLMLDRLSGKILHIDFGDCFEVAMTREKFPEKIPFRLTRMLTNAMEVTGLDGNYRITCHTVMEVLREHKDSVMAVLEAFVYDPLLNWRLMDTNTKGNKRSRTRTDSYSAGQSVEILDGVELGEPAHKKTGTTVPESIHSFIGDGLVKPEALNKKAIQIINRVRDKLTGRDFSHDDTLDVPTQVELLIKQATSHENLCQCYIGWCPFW

SMILES | IC50 [1] [µM] | IC50 [2] [µM] | inhibition at 10 µM [3] [%] | inhibition at 0.5 µM [4] [%] | IC50 [6] [µM] | IC50 [7] [µM] | other results
Cn1c(=O)n(-c2ccc(C(C)(C)C#N)cc2)c2c3cc(-c4cnc5ccccc5c4)ccc3ncc21 [BEZ-235] | < 0.01 | 0.0289 |  |  |  |  | 
CS(=O)(=O)N1CCN(Cc2cc3nc(-c4cccc5[nH]ncc45)nc(N4CCOCC4)c3s2)CC1 [GDC-0941] | 0.451 | 0.0115 |  |  |  |  | 
CSc1c(Cl)nc(-c2ccc(N)nc2)nc1N1CCOCC1 [MTR-0133, 5-(4-Chloro-5-methylsulfanyl-6-morpholin-4-yl-pyrimidin-2-yl)-pyridin-2-ylamine] |  |  | 93 | 70 |  |  | inhibition at 0.5 µM [5]: 4.5%
CCOc1c(C(=O)N2CCN(S(C)(=O)=O)CC2)nc(-c2ccc(NC(=O)Nc3ccccc3)cc2)nc1N1CCOCC1 [MTR-0145, 1-{4-[5-Ethoxy-4-(4-methanesulfonyl-piperazine-1-carbonyl)-6-morpholin-4-yl-pyrimidin-2-yl]-phenyl}-3-phenyl-urea] |  |  | 100 |  | 1.36 ± 0.34 | 0.432 ± 0.02 | 
Oc1cccc(-c2nc(N3CCOCC3)c3oc4ncccc4c3n2)c1 [PI-103] | 0.0649 | 0.0356 |  |  |  |  | 
CO[C@H]1C[C@@H]2CC[C@@H](C)[C@@](O)(O2)C(=O)C(=O)N2CCCC[C@H]2C(=O)O[C@H]([C@H](C)C[C@@H]2CC[C@@H](O)[C@H](OC)C2)CC(=O)[C@H](C)/C=C(\C)[C@@H](O)[C@@H](OC)C(=O)[C@H](C)C[C@H](C)/C=C/C=C/C=C/1C [Rapamycin, rapamycin, reference compound] | < 0.01 | < 0.01 |  |  |  |  | IC50 [8]: > 1 µM

Second part, led by results:

IC50 [1] [µM] | IC50 [2] [µM] | inhibition at 10 µM [3] [%] | inhibition at 0.5 µM [4] [%] | IC50 [6] [µM] | IC50 [7] [µM] | SMILES | other results
 |  | 90 | 70.1 |  |  | CSc1c(Cl)nc(-c2ccc(NC(=O)Nc3ccc(F)cc3)cc2)nc1N1CCOCC1 [MTR-0135, 1-[4-(4-Chloro-5-methylsulfanyl-6-morpholin-4-yl-pyrimidin-2-yl)-phenyl]-3-(4-fluoro-phenyl)-urea] | inhibition at 0.5 µM [5]: 14.2%
 |  | 91 | 65 |  |  | COc1cnc(-c2ccc(NC(=S)Nc3cccc(F)c3)cc2)nc1N1CCOCC1 [MTR-0168, 1-(3-Fluoro-phenyl)-3-[4-(5-methoxy-4-morpholin-4-yl-pyrimidin-2-yl)-phenyl]-thiourea] | inhibition at 0.5 µM [5]: 20.2%
 |  | 96 | 41.1 |  |  | CSc1c(Cl)nc(-c2ccc(NC(=O)Nc3cccc(NC(C)=O)c3)cc2)nc1N1CCOCC1 [MTR-0270, N-(3-{3-[4-(4-Chloro-5-methylsulfanyl-6-morpholin-4-yl-pyrimidin-2-yl)-phenyl]-ureido}-phenyl)-acetamide] | 
 |  | 95 |  | 0.382 ± 0.023 | 0.126 ± 0.008 | CCOc1c(C(=O)N2CCOCC2)nc(-c2ccc(NC(=O)Nc3ccc(N4CCOCC4=O)cc3)cc2)nc1N1CCOCC1 [MTR-0280, 1-{4-[5-Ethoxy-4-(morpholine-4-carbonyl)-6-morpholin-4-yl-pyrimidin-2-yl]-phenyl}-3-[4-(3-oxo-morpholin-4-yl)-phenyl]-urea] | 
 |  | 95 |  | 0.614 ± 0.028 | 0.188 ± 0.006 | COc1cnc(-c2ccc(NC(=O)Nc3ccc(N)cc3)cc2)nc1N1CCOCC1 [MTR-0350, 1-(4-Amino-phenyl)-3-[4-(5-methoxy-4-morpholin-4-yl-pyrimidin-2-yl)-phenyl]-urea] | 
 |  | 97 |  | 0.598 ± 0.018 | 0.205 ± 0.006 | CSc1cnc(-c2ccc(NC(=O)Nc3cccc(NC(C)=O)c3)cc2)nc1N1CCOCC1 [MTR-0377, N-(3-{3-[4-(5-Methylsulfanyl-4-morpholin-4-yl-pyrimidin-2-yl)-phenyl]-ureido}-phenyl)-acetamide] | 
 |  | 89 | 47 | 0.46 ± 0.028 | 0.179 ± 0.014 | CCOc1cnc(-c2ccc(NC(=O)Nc3ccc(N4CCOCC4=O)cc3)cc2)nc1-c1ccncc1 [MTR-0398, 1-[4-(5-Ethoxy-4-pyridin-4-yl-pyrimidin-2-yl)-phenyl]-3-[4-(3-oxo-morpholin-4-yl)-phenyl]-urea] | 
